Our source for the inhibition values is patent US4568687A, “N-[2-4-(1H-Imidazol-1-yl)alkyl]-arylamides and pharmaceutical compositions” (American Cyanamid Company, priority 1984, dated 1986).

Structures can show the parent of a compound that is named as a salt.

In general, inhibition refers to the change of the read-out against control, counted positive when it falls.

The assay has as its target T1, thromboxane synthetase (Rattus norvegicus, UniProt P49430).
T1 construct: The platelets were isolated by centrifuging the PRP for 10 minutes; endogenous in cells; host or cells: washed platelets from arterial blood of Okamoto-Aoki spontaneously hypertensive rats (rats from Taconic Farms)
T1 sequence (P49430 1-533): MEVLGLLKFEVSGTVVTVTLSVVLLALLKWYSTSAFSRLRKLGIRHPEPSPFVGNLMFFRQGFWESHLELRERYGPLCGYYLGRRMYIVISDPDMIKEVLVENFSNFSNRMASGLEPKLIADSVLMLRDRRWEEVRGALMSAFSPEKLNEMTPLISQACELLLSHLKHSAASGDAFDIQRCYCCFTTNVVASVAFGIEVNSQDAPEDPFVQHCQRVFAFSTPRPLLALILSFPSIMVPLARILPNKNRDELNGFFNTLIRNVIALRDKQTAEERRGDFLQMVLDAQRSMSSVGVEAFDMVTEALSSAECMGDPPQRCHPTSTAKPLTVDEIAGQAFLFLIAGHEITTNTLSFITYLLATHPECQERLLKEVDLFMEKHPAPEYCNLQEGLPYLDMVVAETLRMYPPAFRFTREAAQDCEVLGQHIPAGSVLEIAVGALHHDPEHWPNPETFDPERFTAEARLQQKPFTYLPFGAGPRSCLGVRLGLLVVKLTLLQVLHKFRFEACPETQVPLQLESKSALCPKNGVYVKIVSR
Put plainly: Inhibition of thromboxane (TXB2) formation in washed rat platelets, TXB2 by direct radioimmunoassay. In kind it is cell-based, Okamoto-Aoki spontaneously hypertensive rats (SHR). As to conditions: 10 min; Dose 10^-4 (unit inferred); SHR platelet suspension, 10 minutes at 37° C. As for the experimental part:
Under urethan anesthesia, […] of arterial blood was collected in one ml. of 3.2% sodium citrate in a polystyrene tube from Okamoto-Aoki spontaneously hypertensive rats (SHR) (Taconic Farms, Germantown, NY) between 19 and 24 weeks in age. The blood was diluted with 3 ml. cold saline and centrifuged at room temperature for 15 minutes at 460×g. The platelet rich plasma (PRP) was separated. The platelets were isolated by centrifuging the PRP for 10 minutes at 1060×g and were washed in 4 ml. cold oxygenated Krebs phosphate buffer, pH 7.4. The chilled patelets recovered from centrifuging at 800×g for 10 minutes were resuspended in oxygenated Krebs phosphate buffer and diluted to contain 4.5-6.0×10^4 platelets/μl.
The inhibition of thromboxane (TX) formation was studied by determining the […] of thromboxane B2 (TXB2), the stable hydrolysis product of TXA2. Assay samples, prepared on ice, contained 200 μl platelet suspension, 50 μl saline, and 50 μl vehicle or drug under study (OKY-1581, UK-37248-01, 1-benzylimidazole, or indomethacin). The samples were incubated for 10 minutes at 37° C. in a metabolic shaker. The reaction was terminated by immersing the tubes in an ice bath and adding 50 μl of 0.5M citric acid. The samples were centrifuged for 10 minutes in a refrigerated centrifuge and the supernatants thus obtained were decanted and stored at -20° C. The TXB2 content for each sample was determined by a direct radioimmunoassay (RIA) utilizing a TXB2 specific RIA kit purchased from New England Nuclear, Boston, MA and expressed as pg TXB2 formed minute^-1 sample^-1, from which the percent inhibition of TXB2 formation was calculated.
`O=C(NC(CCn1ccnc1)c1ccccc1)c1ccc(Br)cc1` (centres unmarked) [4-bromo-N--[3-(1H--imidazol-1-yl)-1-phenylpropyl]benzamide]: the inhibition at 100 µM amounted to 100%.

For `CC(CCNC(=O)c1ccc(Br)cc1)n1ccnc1` (centres unmarked) [4-bromo-N--[3-(1H--imidazol-1-yl)butyl]benzamide], the inhibition at 100 µM was 91%.

Regarding `O=C(NCCCn1ccnc1)c1cccc(C(F)(F)F)c1` [3-trifluoromethyl-N--[3-(1H--imidazol-1-yl)propyl]benzamide], the inhibition at 100 µM amounted to 84%.

For `O=C(NCCCn1ccnc1)c1cccc(F)c1` [3-fluoro-N--[3-(1H--imidazol-1-yl)propyl]benzamide], the inhibition at 100 µM is 95.8%.

For the molecule `COc1cc(C(=O)NCCCn2ccnc2)cc(OC)c1OC` [N--[3-(1H--imidazol-1-yl)propyl]-3,4,5-trimethoxybenzamide], the inhibition at 100 µM is 101%.

Consider `O=C(NCCCn1ccnc1)c1ccccc1F` [2-fluoro-N--[3-(1H--imidazol-l-yl)propyl]benzamide], for which the inhibition at 100 µM was determined as 83.9%.

Regarding `CCNc1ccccc1C(=O)NCCCn1ccnc1` [2-ethylamino-N--[3-(1H--imidazol-1-yl)propyl]benzamide], the inhibition at 100 µM turned out to be 86%.

Consider `O=C(NCCCn1ccnc1)C1c2ccccc2-c2ccccc21` [N--[3-(1H--imidazol-1-yl)propyl]-9H--fluorene-9-carboxamide], for which the inhibition at 100 µM worked out at 100%.

As for `O=C(NCCCn1ccnc1)c1ccc(C(=O)c2ccccc2)cc1` [4-benzoyl-N--[3-(1H--imidazol-1-yl)propyl]benzamide], the inhibition at 100 µM was determined as 103%.

As to `Cc1ccc(CC(=O)NCCCn2cnc(C)c2)cc1` [4-methyl-N--[3-(4-methyl-1H--imidazol-1-yl)propyl]phenylacetamide], the inhibition at 100 µM is 76%.

`CC(CCNC(=O)c1ccc(Cl)cc1)n1ccnc1` (centres unmarked) [4-chloro-N--[3-(1H--imidazol-1-yl)butyl]benzamide]: the inhibition at 100 µM was 96%.

Consider `COc1ccc(C(=O)NCCCn2ccnc2)cc1` [N--[3-(1H--imidazol-1-yl)propyl]-4-methoxybenzamide], for which the inhibition at 100 µM is 88.9%.

`O=C(NCCn1ccnc1)c1ccc(Cl)c(Cl)c1` [3,4-dichloro-N--[2-(1H--imidazol-1-yl)ethyl]benzamide]: the inhibition at 100 µM was 58.5%.

Take `O=C(Cc1ccc(F)cc1)NCCCn1ccnc1` [4-fluoro-N--[3-(1H--imidazol-1-yl)propyl]benzeneacetamide, fumarate]: the inhibition at 100 µM was 53.1%.

Regarding `Cc1ccc(C(=O)NCCCn2ccnc2)cc1` [N--[3-(1H--imidazol-1-yl)propyl]-4-methylbenzamide], the inhibition at 100 µM turned out to be 83.2%.

In the case of `CS(=O)(=O)c1ccc(C(=O)NCCCn2ccnc2)cc1` [N--[3-(1H--imidazol-1-yl)propyl]-4-(methylsulfonyl)benzamide], the inhibition at 100 µM was 80.1%.

With `O=C(COc1cccc(Cl)c1Cl)NCCCn1ccnc1` [2-(2,3-dichlorophenoxy)-N--[3-(1H--imidazol-1-yl)propyl]acetamide, fumarate], the inhibition at 100 µM came out at 100%.

For `O=C(NCCCCn1ccnc1)c1cccc2ccccc12` [N--[4-(1H--imidazol-1-yl)butyl]-naphthalene-1-carboxamide], the inhibition at 100 µM came out at 95%.

For the molecule `CC(CCNC(=O)c1cccc(Cl)c1)n1ccnc1` (centres unmarked) [3-chloro-N--[3-(1H--imidazol-1-yl)butyl]benzamide], the inhibition at 100 µM is 93%.

Regarding `N#Cc1ccc(C(=O)NCCCn2ccnc2)cc1` [4-cyano-N--[3-(1H--imidazol-1-yl)propyl]benzamide], the inhibition at 100 µM was determined as 90.7%.

Regarding `O=C(COc1ccc(Cl)cc1)NCCCn1ccnc1` [2-(4-chlorophenoxy)-N--[3-(1H--imidazol-1-yl)propyl]acetamide], the inhibition at 100 µM worked out at 84.6%.

As for `O=C(NCCCn1ccnc1)c1ccc(-c2ccccc2)cc1` [N--[3-(1H--imidazol-1-yl)propyl][1,1'-biphenyl]-4-carboxamide], the inhibition at 100 µM was determined as 106%.

With `Cc1cn(CCCNC(=O)c2ccc(I)cc2)cn1` [4-iodo-N--[3-(4-methyl-1H--imidazol-1-yl)propyl]benzamide], the inhibition at 100 µM is 99%.

For `CC(=O)Nc1ccc(C(=O)NCCCn2ccnc2)cc1` [4-(acetylamino)-N--[3-(1H--imidazol-1-yl)propyl]benzamide], the inhibition at 100 µM turned out to be 98.7%.

Consider `O=C(NCCCn1ccnc1)c1ccccc1Cl` [2-chloro-N--[3-(1H--imidazol-1-yl)propyl]benzamide], for which the inhibition at 100 µM is 99.7%.

Take `O=C(NC(CCn1ccnc1)c1ccccc1)c1ccc(Cl)cc1` (centres unmarked) [4-chloro-N--[3-(1H--imidazol-1-yl)-1-phenylpropyl]benzamide]: the inhibition at 100 µM stood at 100%.

With `O=C(NCCCn1ccnc1)c1ccc(Cl)c(Cl)c1` [3,4-dichloro-N--[3-(1H--imidazol-1-yl)propyl]benzamide], the inhibition at 100 µM was determined as 92.7%.

For `Cc1cn(CCCNC(=O)c2cccc(Br)c2)cn1` [3-bromo-N--[3-(4-methyl-1H--imidazol-1-yl)propyl]benzamide], the inhibition at 100 µM was 93%.

For the molecule `CSc1ccc(C(=O)NCCCn2ccnc2)cc1` [N--[3-(1H--imidazol-1-yl)propyl]-4-(methylthio)-benzamide], the inhibition at 100 µM came out at 102%.

Consider `CC(CNC(=O)c1ccc(Cl)cc1)Cn1ccnc1` (centres unmarked) [4-chloro-N--[3-(1H--imidazol-1-yl)-2-methylpropyl]benzamide fumarate], for which the inhibition at 100 µM worked out at 100%.

`O=C(NCCCn1ccnc1)C(c1ccccc1)c1ccccc1` [N-[3-(1H-imidazol-1-yl)propyl]diphenylacetamide]: the inhibition at 100 µM turned out to be 84%.

Consider `O=C1c2ccccc2C(=O)N1CCCCCn1ccnc1` [2-[5-(1H--imidazol-1-yl)pentyl]-1H--isoindole-1,3(2H)--dione], for which the inhibition at 100 µM worked out at 92%.

For `O=C(NCCCn1ccnc1)C(=O)c1ccccc1` [N-[3-(1H-Imidazol-1-yl)propyl]-α-oxo-benzeneacetamide, fumarate], the inhibition at 100 µM was determined as 79.7%.

As to `CNc1ccccc1C(=O)NCCCn1ccnc1` [N--[3-(1H--imidazol-1-yl)propyl]-2-methylaminobenzamide], the inhibition at 100 µM was 57%.

For `O=C(NCCCn1cnc(-c2ccccc2)c1)c1ccc(Br)cc1` [4-Bromo-N-[3-(4-phenyl-1H-imidazol-1-yl)propyl]benzamide], the inhibition at 100 µM amounted to 66%.

`O=C(NCCCCn1ccnc1)c1ccc(Cl)c(Cl)c1` [3,4-Dichloro-N-[4-(1H-imidazol-1-yl)butyl]benzamide]: the inhibition at 100 µM was 100%.

As for `O=C(NCCCn1ccnc1)c1ccc(F)cc1` [4-fluoro-N--[3-(1H--imidazol-1-yl)propyl]benzamide], the inhibition at 100 µM was 87.1%.

For the molecule `O=C(COc1ccccc1)NCCCn1ccnc1` [N-[3-(1H-Imidazol-1-yl)propyl]-2-phenoxyacetamide], the inhibition at 100 µM turned out to be 86.2%.

Consider `CC(=O)c1ccc(C(=O)NCCCn2ccnc2)cc1` [4-acetyl-N--[3-(1H--imidazol-1-yl)propyl]benzamide], for which the inhibition at 100 µM was 89.5%.

As to `O=C(NCCCn1ccnc1)c1ccc(I)cc1` [N--[3-(1H--imidazol-1-yl)propyl]-4-iodobenzamide], the inhibition at 100 µM is 96.7%.

For the molecule `CN(C)c1ccc(C(=O)NCCCn2ccnc2)cc1` [N--[3-(1H--imidazol-1-yl)propyl]-4-(dimethylamino)benzamide], the inhibition at 100 µM came out at 93%.
